In patent USRE35053E, “Amines useful in producing pharmaceutically active CNS compounds” (The Upjohn Company, priority 1992, dated 1995):
Structures can show the parent of a compound that is named as a salt.

How the values were obtained:
[1] = test system: arachidonic acid; assay: Arachidonic Acid Antagonism Assay (AAAA); assay type: in vivo, mouse (Charles River male CF-1); conditions: mice; for arachidonic acid antagonism (elevation of LD50 of arachidonic acid): IV, 15 min before sodium arachidonate, outside 95% confidence interval of control LD50
Description: While not necessary to determine arachidonic acid antagonism, the above assay has been modified as follows: Charles River male CF-1 mice weighing […] are treated IV with the test compound dissolved in 1.0% Tween-80 and 0.1% hydrochloric acid in distilled water. 0 2 ml total volume. Fifteen minutes later sodium arachidonate (90% pure) in physiological (normal) […] is injected into the tail vein. The LD50 is measured using the Spearman-Karber method with a log dose interval of 0.05 (N-6). Compounds which elevate the LD50 outside of the 95% confidence interval of the control LD50 are considered to be "active".

[2] = test system: angiogenesis; assay: fertile egg or chick embryo assay of Folkman (inhibition of angiogenesis / tumor growth); assay type: in vivo; conditions: chick embryo; for inhibition of angiogenesis: 50 μg/10 μl with heparin, avascular zone 4 mm or greater
Description: According to this procedure compounds which are considered to be "active" (i.e, antiangiogenic) give an avascular zone of 4 mm or greater in some embryos when tested at 50 μg/10 μl in the presence of 50 μg/10 μ of heparin.

[3] = test system: interleukin-1; assay: inhibition of interleukin-1 induced T cell proliferation assay; assay type: cell-based; conditions: active = >30% at 10^-6 M
Description: The inhibition of interleukin-1 induced T cell proliferation assay, Proc. Nat. […] Since people with arthritis make excess interleukin 1, compounds which inhibit the activity of interleukin 1 are useful in the treatment of arthritis. According to this procedure compounds which inhibit the activity of interleukin 1 greater that 30% at 10^-6 M are considered to be "active".

| Compound | arachidonic acid antagonism (elevation of LD50 of arachidonic acid) [1] | inhibition of interleukin 1 [3] | other results |
| --- | --- | --- | --- |
| C[C@]12C=CC(=O)C=C1CC[C@@H]1[C@@H]2[C@@H](O)C[C@@]2(C)[C@H]1CC[C@]2(O)C(=O)CN1CCN(c2ccccn2)CC1 [Example 25, 11β,17α-dihydroxy-21-[4-(2-pyridinyl)-1-piperazinyl]-pregna-1,4-diene-3,20-dione dihydrochloride] | demonstrate arachidonic acid antagonism | – | – |
| C[C@]12CC[C@H]3[C@@H](CCC4=CC(=O)C=C[C@@]43C)[C@@H]1CC[C@@H]2C(=O)CN1CCN(c2cc(N3CCCC3)nc(N3CCCC3)n2)CC1.Cl.Cl [Example 97, 21-[4-[2,6-di-(1-pyrrolidinyl)-4-pyrimidinyl]-1-piperazinyl]-pregna-1,4-diene-3,20-dione dihydrochloride] | – | demonstrate inhibition of interleukin 1 | inhibition of angiogenesis [2]: demonstrate inhibition of angiogenesis |
| CCN(CC)c1ccc(N(C)C)c(N2CCN(CC(=O)[C@@]3(O)CC[C@H]4[C@@H]5CCC6=CC(=O)CC[C@]6(C)C5=CC[C@@]43C)CC2)n1.Cl.Cl [Example 96, 21-[4-[6-(diethylamino)-3-(dimethylamino)-2-pyridinyl]-1-piperazinyl]-17α-hydroxypregna-4,9(11)-diene-3,20-dione dihydrochloride] | – | demonstrate inhibition of interleukin 1 | – |
| CCN(CC)c1cc(N2CCN(CC(=O)[C@@]3(O)CC[C@H]4[C@@H]5CCC6=CC(=O)CC[C@]6(C)[C@H]5CC[C@@]43C)CC2)nc(N(CC)CC)n1 [Example 53, 21-[4-[2,-bis(diethylamino)-4-pyrimidinyl]-1-piperazinyl]-17α-hydroxypregn-4-ene-3,20-dione] | demonstrate arachidonic acid antagonism | – | – |
| CN1CCN(c2cc(N3CCN(CC(=O)[C@@]4(O)CC[C@H]5[C@@H]6CCC7=CC(=O)CC[C@]7(C)C6=CC[C@@]54C)CC3)nc(N3CCN(C)CC3)n2)CC1.CS(=O)(=O)O.O [Example 19, 17α-Hydroxy-21-[4-[2,6-bis(4-methyl 1 piperazinyl)-4-pyrimidinyl]-1-piperazinyl]pregna-4,9(11)-diene-3,20-dione methanesulfonate hydrate] | demonstrate arachidonic acid antagonism | – | – |
| C[C@H]1C[C@@H]2[C@H]([C@@H](O)C[C@@]3(C)[C@H]2CC[C@]3(O)C(=O)CN2CCN(c3ccccn3)CC2)[C@@]2(C)C=CC(=O)C=C12 [Example 21, 11β,17α-dihydroxy-6α-methyl-21-[4-(2-pyridinyl)-1-piperazinyl]pregna-1,4-diene-3,20-dione] | demonstrate arachidonic acid antagonism | demonstrate inhibition of interleukin 1 | % of Embryos with 4 mm or Greater A vascular Zone ([2]; 50 μg/10 μl in the presence of heparin): 91%; inhibition of angiogenesis [2]: demonstrate inhibition of angiogenesis |
| C[C@]12CC(=O)[C@H]3[C@@H](CCC4=CC(=O)CC[C@@]43C)[C@@H]1CC[C@@H]2C(=O)CN1CCN(c2ccccn2)CC1.Cl.O [Example 45, 21-[4-(2-pyridinyl)-1-piperazinyl]pregn-4-ene-3,11,20-trione hydrochloride hydrate] | demonstrate arachidonic acid antagonism | – | – |
| C[C@]12C=CC(=O)C=C1CC[C@@H]1C2=CC[C@@]2(C)[C@H]1CC[C@]2(O)C(=O)CN1CCN(c2cc(N3CCCC3)nc(N3CCCC3)n2)CC1.Cl.Cl.O [Example 74, 17α-hydroxy-21-[4-[2,6-di-(1-pyrrolidinyl)-4-pyrimidinyl]-1-piperazinyl]pregna-1,4,9(11)-triene-3,20-dione dihydrochloride hydrate] | demonstrate arachidonic acid antagonism | – | – |
| CCN(CC)c1cc(N2CCN(CC(=O)[C@@]3(O)CC[C@H]4[C@@H]5CCC6=CC(=O)C=C[C@]6(C)C5=CC[C@@]43C)CC2)nc(N(CC)CC)n1.Cl.Cl.O [Example 75, 21-[4-[2,6-bis(diethylamino)-4-pyrimidinyl]-1-piperazinyl]-17α-hydroxypregna-1,4,9(11)-triene-3,20-dione dihydrochloride hydrate] | demonstrate arachidonic acid antagonism | – | – |
| COc1cccc(N2CCN(CC(=O)[C@@]3(O)CC[C@H]4[C@@H]5CCC6=CC(=O)CC[C@]6(C)C5=CC[C@@]43C)CC2)n1.CS(=O)(=O)O [Example 22, 17α-hydroxy-21-[4-(6-methoxy-2-pyridinyl)-1-piperazinyl]pregna-4,9(11)-diene-3,20-dione monomethanesulfonate] | demonstrate arachidonic acid antagonism | – | – |
| CCN(CC)c1cc(N2CCN(C(=O)[C@@]3(O)CC[C@H]4[C@@H]5CCC6=CC(=O)CC[C@]6(C)[C@H]5CC[C@@]43C)CC2)nc(N(CC)CC)n1 [Example 57] | demonstrate arachidonic acid antagonism | – | % of Control LD50 ([1]; 100 mg/kg, LD50 of sodium arachidonate): 124% |
| C=CCNc1nc(NCC=C)nc(N2CCN(CC(=O)[C@@]3(O)CC[C@H]4[C@@H]5CCC6=CC(=O)CC[C@]6(C)C5=CC[C@@]43C)CC2)n1.Cl.Cl.O [Example 60, 17α-hydroxy-21-[4-[4,6-bis(2-propenylamino)-1,3,5-triazin-2-yl]-1-piperazinyl]pregna-4,9(11)-diene-3,20-dione dihydrochloride hydrate] | demonstrate arachidonic acid antagonism | – | – |
| C[C@]12CCC(=O)C=C1CC[C@@H]1[C@@H]2[C@H](O)C[C@@]2(C)[C@H]1CC[C@]2(O)C(=O)CN1CCN(c2ccc(F)cc2)CC1 [Example 29, 21-[4-(4-fluorophenyl)-1-piperazinyl]-11α,17α-dihydroxypregn-4-ene-3,20-dione dihydrochloride] | demonstrate arachidonic acid antagonism | – | – |
| COc1ccc(CCN(CC(=O)[C@@]2(O)CC[C@H]3[C@@H]4CCC5=CC(=O)CC[C@]5(C)C4=CC[C@@]32C)Cc2cc(OC)c(OC)c(OC)c2)cc1OC [Example 37, 17α-hydroxy-21-[[2-(3,4-dimethoxyphenyl)ethyl]-[3,4,5-trimethoxyphenyl)methyl]amino]pregna-4,9(11)diene-3,20-dione hydrochloride] | – | demonstrate inhibition of interleukin 1 | inhibition of angiogenesis [2]: demonstrate inhibition of angiogenesis |
| COc1ccc(CCN(CC(=O)[C@@]2(O)CC[C@H]3[C@@H]4CCC5=CC(=O)CC[C@]5(C)C4=CC[C@@]32C)Cc2ccc(N(C)C)cc2)cc1OC [Example 51, 17α-hydroxy-21-[[2-(3,4-dimethoxyphenyl)ethyl]-4-(dimethylamino)phenyl]methyl]amino]pregna-4,9(11)-3,20-dione hydrochloride] | demonstrate arachidonic acid antagonism | – | – |
| C[C@]12CCC(=O)C=C1CC[C@@H]1C2=CC[C@@]2(C)[C@H]1CC[C@]2(O)C(=O)CN1CCN(Cc2ccccn2)CC1 [Example 54, 17α-hydroxy-21-[4-(2-pyridinylmethyl)-1-piperazinyl]-pregna-4,9(11)-diene-3,20-dione(E)-2-butenedioate 1:1 salt] | demonstrate arachidonic acid antagonism | – | – |
| CN(CCN(C)c1ccccn1)CC(=O)[C@@]1(O)CC[C@H]2[C@@H]3CCC4=CC(=O)CC[C@]4(C)C3=CC[C@@]21C.Cl.Cl [Example 24, 17α-hydroxy-21-[methyl[2-(methyl-2-pyridinylamino)ethyl]amino]pregna-4,9(11)-diene-3,20-dione dihydrochloride] | demonstrate arachidonic acid antagonism | – | inhibition of angiogenesis [2]: demonstrate inhibition of angiogenesis |
| C[C@]12C[C@@H](O)[C@H]3[C@@H](CCC4=CC(=O)CC[C@@]43C)[C@@H]1CC[C@@H]2C(=O)CN1CCN(c2ccccn2)CC1.Cl.Cl [Example 36, 11α-hydroxy-21-[4-(2-pyridinyl)-1-piperazinyl]pregn-4-ene-3,20-dione, dihydrochloride] | – | – | inhibition of angiogenesis [2]: demonstrate inhibition of angiogenesis |
| CN1CCN(CC(=O)[C@@]2(O)CC[C@H]3[C@@H]4CCC5=CC(=O)CC[C@]5(C)C4=CC[C@@]32C)CC1 [Example 101, 17α-hydroxy-21-(4-methyl-1-piperazinyl)-pregna-4,9(11)-diene-3,20-dione] | – | demonstrate inhibition of interleukin 1 | – |
| C[C@]12CC(=O)[C@H]3[C@@H](CCC4=CC(=O)CC[C@@]43C)[C@@H]1CC[C@@H]2C(=O)CN1CCN(c2cc(N3CCCC3)nc(N3CCCC3)n2)CC1.Cl.Cl [Example 94, 21-[4-[2,6-bis(1-pyrrolidinyl)-4-pyrimidinyl]-1-piperazinyl]-pregn-4-ene-3,11,20-trione dihydrochloride] | – | demonstrate inhibition of interleukin 1 | – |
